Assay results taken from patent US6638949B1, “Prevention of adhesions and excessive scar formation using angiogenesis inhibitors” (priority 1997, dated 2003).

Assays:
Type in all cases: in vivo, mice
[1] = tested on: full thickness mouse wounds; experiment: Histology of full thickness mouse wounds (hematoxylin and eosin) after TNP-470 treatment
Protocol: Full thickness mouse wounds were made in adult mice, the majority of whom were six to eight weeks old and some of whom were fourteen to sixteen weeks old. Mice were pretreated for sixty days with TNP-470, then wounds were made, and healing monitored. Mice were treated with 30 mg/kg TNP-470 administered subcutaneously every other day. Histological micrographs of open mouse wounds harvested at 7, 12, and 17 days post excision were made. The biopsies were fixed, embedded, sectioned and stained with hematoxylin and eosin.

[2] = tested on: basic fibroblast growth factor (bFGF); experiment: Endogenous basic fibroblast growth factor (bFGF) in the wound; details: day 10 after wound; average; p≦0.05
Protocol: FIG. 1 is a graph of endogenous basic fibroblast growth factor (bFGF)(pg/cm2) over time (days after wounding) of mice treated with TNP-470 (solid circles) and controls that were not treated (open circles). Full thickness mouse wounds were made in adult mice, the majority of whom were six to eight weeks old and some of whom were fourteen to sixteen weeks old. Mice were pretreated for sixty days with TNP-470, then wounds were made, and healing monitored. Mice were treated with 30 mg/kg TNP-470 administered subcutaneously every other day. Mice were treated essentially the same as described in Example 1.

[3] = tested on: full thickness wounds; experiment: Wound closure / contraction of full thickness wounds
Text: FIG. 2 is a graph of percent wounds open over time (days after wounding) for mice treated with TNP-470 for different dosage regimes: pretreatment days −60 to day 0; treated with TNP-470 days 5 to 18; treated with TNP-470 days 0 to 18; and treated with TNP-470 days 0, 2 and 4. Full thickness mouse wounds were made in adult mice, the majority of whom were six to eight weeks old and some of whom were fourteen to sixteen weeks old. Mice were pretreated for sixty days with TNP-470, then wounds were made, and healing monitored. Mice were treated with 30 mg/kg TNP-470 administered subcutaneously every other day. Mice were treated essentially the same as described in Example 1. Histological analysis of the wounds in the control and treated mice compared contraction of full thickness wounds in mice treated with systemic TNP-470 (AGM 1470), every other day after the wound is made, with untreated mice. Treatment with TNP-470 every other day after the wound is made (at a dose identical to that which results in maximal tumor inhibition) causes a 5-day delay in the complete contraction of the wound.

[4] = tested on: linear wounds; experiment: Breaking strength (tensile strength) of linear wounds; details: for inhibition of breaking strength: systemic, FIG. 3, n=280 mice, statistically significant
Protocol: FIG. 3 is a graph of breaking strength (tensile strength) of linear wounds after systemic administration of TNP-470 days −20 to 0; days 0 to 4; days 0 to 12; days 5 to 12; and control, measured on days 4, 7 and 12 after wounding. Mice were treated essentially the same as described in Example 1. FIG. 3 (n=280 mice)graphs breaking strength of linear wounds after systemic administration of TNP-470. Breaking strength was inhibited 36% on post wound day 7 and 43% on post wound day 12. This was statistically significant. The wounds were inhibited if TNP-470 was given on post wound days 0, 2, 4 or post wound days 0, 2, 4, 6, 8, and 10.

[5] = 17 days post excision, vs untreated
[6] = given on post wound days 0, 2, 4, or post wound days 0, 2, 4, 6, 8, and 10

Compound: CO[C@@H]1[C@H](OC(=O)NC(=O)CCl)CC[C@]2(CO2)[C@H]1[C@@]1(C)O[C@@H]1CC=C(C)C [TNP-470, 0-chloroacetylcarbamoyl-Fumagillol]
- blood vessels in healing wound granulation tissue ([1]; 7 days post excision, 30 mg/kg s.c. every other day, vs untreated): relatively lower density of blood vessels
- blood vessels in granulation tissue under re-epithelialized surface ([1]; 12 days post excision, wound not completely closed, vs untreated): fewer vessels with smaller diameters
- blood vessels in mature granulation tissue of healed wound [1, 5]: reduction in the number of vessels
- density of mesenchymal cells in granulation tissue [1, 5]: continued higher density of mesenchymal cells
- scar formation (histologic findings) ([1]; overall, 7, 12 and 17 days): severely retarded scar formation
- reduction of bFGF concentration in wound [2]: 37%
- wound healing slowed, time to full contraction ([3]; FIG. 2, n=440 mice, statistically significant): 5 days
- wound healing [3, 6]: remained inhibited
- delay in the complete contraction of the wound ([3]; systemic, every other day after the wound is made, dose of maximal tumor inhibition): 5 days
- breaking strength of wounds [4, 6]: inhibited
- inhibition of breaking strength ([4]; post wound day 7): 36%
- inhibition of breaking strength ([4]; post wound day 12): 43%
